This passage reports GI50 and TGI results from PubChem BioAssay (NCI).

SMILES strings stand for the structures. Several values for one entry are separate records, joined by “and”; a condition that tells them apart may be missing. Identical values can stand only once.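 Growth conditions: 96-well plates. Treatment: test compound, 48 hours, 5 concentrations. Analysis: linear interpolation between bracketing concentrations; unreached endpoints set to highest concentration. Abbreviation: GI50, concentration required for 50% inhibition of growth. TGI: concentration producing complete growth inhibition.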 A value given as a limit tells only on which side of the number the result lay.

Test systems include OVCAR-8 ovarian; PC-3 prostate; SF-539 CNS; SNB-19 CNS; BT-549 breast; SK-MEL-5 melanoma; A549 NSCLC; HCT-15 colon.
Common to all, as to assay: growth of human tumour cells (NCI), 48 h

Regarding `OC(c1cc(C(F)(F)F)nc2c(C(F)(F)F)cccc12)C1CCCCN1` (stereo not drawn), the GI50 with OVCAR-8 ovarian was 1.97 µM; in the experiment on PC-3 prostate, 2.17 µM; in the experiment on SF-539 CNS, 2.72 µM; in the experiment on SNB-19 CNS, 2.75 µM; in the experiment on BT-549 breast it was 3.24 µM; in the experiment on SK-MEL-5 melanoma, 1.68 µM. For the same molecule, the GI50 in the experiment on A549 NSCLC was 2.24 µM; in the experiment on HCT-15 colon, 3.51 µM. Also, the TGI in the experiment on OVCAR-8 ovarian stood at 4.24 µM; in the experiment on PC-3 prostate, 5.88 µM; with SF-539 CNS, 6.34 µM; in the experiment on SNB-19 CNS, 8.22 µM; in the experiment on BT-549 breast, 8.67 µM; with SK-MEL-5 melanoma it was 3.07 µM. The TGI turned out to be 6.33 µM in the experiment on A549 NSCLC and 10.9 µM in the experiment with HCT-15 colon.

Regarding `C=C1C[C@H](O)[C@H](Br)C(C)(C)[C@@]12CCC(C)=C(Cl)C2`, the GI50 is 0.416 µM in the experiment on OVCAR-8 ovarian; 0.0573 µM in the experiment with PC-3 prostate; 0.445 µM with SF-539 CNS; 0.683 µM with SNB-19 CNS; 0.248 µM with BT-549 breast; 0.253 µM with SK-MEL-5 melanoma. Also, the GI50 in the experiment with A549 NSCLC was 0.261 µM; in the experiment with HCT-15 colon it was 0.269 µM. The TGI in the experiment with OVCAR-8 ovarian was found to be 15.3 µM; with PC-3 prostate it was 1.87 µM; in the experiment on SF-539 CNS, 11.3 µM; in the experiment with SNB-19 CNS, 14.1 µM; in the experiment with BT-549 breast it was 2.82 µM; in the experiment with SK-MEL-5 melanoma it was 0.866 µM. Also, the TGI is 1.96 µM in the experiment with A549 NSCLC and 1.27 µM in the experiment with HCT-15 colon.

As to `COC(=O)[C@]12CC[C@@H](C)[C@H](C)[C@@H]1C1=CC[C@@H]3[C@@]4(C)C[C@@H](O)[C@H](O)[C@@](C)(CO)[C@@H]4[C@H](O)C[C@@]3(C)[C@]1(C)CC2`, the GI50 is 17.7 µM in the experiment on OVCAR-8 ovarian; 3.63 µM in the experiment on PC-3 prostate; 14 µM with SF-539 CNS; 13.2 µM in the experiment on SNB-19 CNS; 12.6 µM with BT-549 breast; 15.3 µM in the experiment on SK-MEL-5 melanoma. Moreover, the GI50 with A549 NSCLC was 15.8 µM; in the experiment on HCT-15 colon, 12.5 µM. Further, the TGI with OVCAR-8 ovarian came out at 41.1 µM; with PC-3 prostate, 15.6 µM; in the experiment with SF-539 CNS it was 29 µM; in the experiment on SNB-19 CNS, 38.9 µM; with BT-549 breast it was 26.4 µM; in the experiment with SK-MEL-5 melanoma, 28.9 µM. For the same molecule, the TGI came to 45.2 µM in the experiment on A549 NSCLC and 28.4 µM in the experiment with HCT-15 colon.

Turning to `O=C(Nc1cccc(C(F)(F)F)c1)Nc1cccc(C(F)(F)F)c1`, the GI50 in the experiment on OVCAR-8 ovarian is 1.06 µM; with PC-3 prostate, 0.374 µM; in the experiment with SF-539 CNS it was 2.13 µM; in the experiment on SNB-19 CNS, 0.658 µM; in the experiment on BT-549 breast it was 2.29 µM; in the experiment with SK-MEL-5 melanoma it was 1.28 µM. In addition, the GI50 in the experiment with A549 NSCLC is 0.531 µM; in the experiment with HCT-15 colon it was 0.464 µM. Also, the TGI in the experiment with OVCAR-8 ovarian turned out to be 10.4 µM; in the experiment with PC-3 prostate it was 12.5 µM; in the experiment with SF-539 CNS, 5.23 µM; with SNB-19 CNS, 9.93 µM; with BT-549 breast, 6.44 µM; with SK-MEL-5 melanoma, 2.55 µM. The TGI in the experiment with A549 NSCLC came to 8.21 µM; in the experiment with HCT-15 colon, 3.41 µM.

Take `CCNC(=O)C#Cc1ccc2c(C(=Nc3ccc(CN(C)C)cc3)c3ccccc3)c(O)[nH]c2c1`: the GI50 in the experiment with OVCAR-8 ovarian was 1.04 µM; with PC-3 prostate it was 0.238 µM; with SF-539 CNS it was 0.121 µM; in the experiment on SNB-19 CNS, 0.206 µM; in the experiment on BT-549 breast, 1.51 µM; in the experiment with SK-MEL-5 melanoma it was 0.307 µM. For the same molecule, the GI50 in the experiment on A549 NSCLC is 0.0401 µM; with HCT-15 colon, 0.392 µM. Besides, the TGI in the experiment with OVCAR-8 ovarian is above 10 µM; in the experiment with PC-3 prostate, above 4.79 µM; in the experiment with SF-539 CNS, 1.27 µM; in the experiment with SNB-19 CNS, above 5.9 µM; with BT-549 breast it was above 10 µM; with SK-MEL-5 melanoma, 1.84 µM. Further, the TGI is above 5.34 µM with A549 NSCLC and 4.62 µM in the experiment on HCT-15 colon.

For the molecule `COc1cc(-c2nc3sccn3c2-c2ccnc(NCCNS(=O)(=O)c3ccc(F)cc3)n2)ccc1F`, the GI50 is 2.12 µM in the experiment on OVCAR-8 ovarian; 0.946 µM in the experiment on PC-3 prostate; 4.86 µM with SF-539 CNS; 5.33 µM in the experiment on SNB-19 CNS; 0.292 µM with BT-549 breast; 1.28 µM in the experiment on SK-MEL-5 melanoma. The GI50 with A549 NSCLC was 2.44 µM; with HCT-15 colon it was 2.33 µM. Besides, the TGI in the experiment with OVCAR-8 ovarian is above 100 µM; in the experiment on PC-3 prostate, above 100 µM; in the experiment on SF-539 CNS it was above 100 µM; in the experiment on SNB-19 CNS, above 100 µM; with BT-549 breast it was above 100 µM; in the experiment with SK-MEL-5 melanoma, 2.63 µM. The TGI in the experiment with A549 NSCLC and with HCT-15 colon was above 100 µM each time.

For `CN1CCN(C(=O)COc2ccc(C34CC5CC(CC(C5)C3)C4)cc2)CC1`, the GI50 in the experiment with OVCAR-8 ovarian was 18.2 µM; with PC-3 prostate, 4.87 µM; in the experiment with SF-539 CNS, 12.7 µM; in the experiment with SNB-19 CNS it was 13.6 µM; in the experiment with BT-549 breast it was 12.2 µM; with SK-MEL-5 melanoma it was 10.3 µM. For the same molecule, the results for the GI50 in the experiment on A549 NSCLC and in the experiment with HCT-15 colon were 13 µM and 7.33 µM, respectively. In addition, the TGI with OVCAR-8 ovarian amounted to 54.1 µM; in the experiment with PC-3 prostate, 21.6 µM; in the experiment with SF-539 CNS it was 25.9 µM; with SNB-19 CNS it was 26.8 µM; with BT-549 breast, 26.5 µM; in the experiment with SK-MEL-5 melanoma, 22.7 µM. For the same molecule, the TGI was determined as 37.2 µM with A549 NSCLC and 21 µM in the experiment on HCT-15 colon.

`O=C(O)C(Cl)Cl`: the GI50 in the experiment on OVCAR-8 ovarian was above 10000 µM; in the experiment on PC-3 prostate it was above 10000 µM; in the experiment with SF-539 CNS, above 10000 µM; in the experiment with SNB-19 CNS, 7520 µM and > 10000 µM; with BT-549 breast it was 2780 µM and > 8920 µM; with SK-MEL-5 melanoma, above 10000 µM. In addition, the GI50 is 7560 µM and > 10000 µM in the experiment with A549 NSCLC; 6680 µM and > 10000 µM with HCT-15 colon. Moreover, the TGI in the experiment with OVCAR-8 ovarian, in the experiment on PC-3 prostate, with SF-539 CNS, with SNB-19 CNS, in the experiment with BT-549 breast and in the experiment on SK-MEL-5 melanoma was above 10000 µM in each case. Moreover, the TGI in the experiment on A549 NSCLC and in the experiment with HCT-15 colon was above 10000 µM throughout.

Take `O=C1c2c(F)c(F)c(F)c(F)c2C(=O)N1c1ccc(F)cc1F`: the GI50 is 12.8 µM in the experiment on OVCAR-8 ovarian; 6.21 µM in the experiment on PC-3 prostate; 2.78 µM in the experiment with SF-539 CNS; 16.8 µM with SNB-19 CNS; 11.9 µM in the experiment with BT-549 breast; 13.1 µM with SK-MEL-5 melanoma. The GI50 in the experiment with A549 NSCLC is 16.3 µM; in the experiment on HCT-15 colon it was 2.57 µM. In addition, the TGI in the experiment on OVCAR-8 ovarian came to 50.8 µM; in the experiment with PC-3 prostate it was 27.2 µM; in the experiment with SF-539 CNS, 7.27 µM; with SNB-19 CNS, 39.8 µM; with BT-549 breast, 28 µM; in the experiment with SK-MEL-5 melanoma it was 30.6 µM. The TGI in the experiment on A549 NSCLC was determined as 34.7 µM; with HCT-15 colon, 7.43 µM.

For the molecule `COc1cc2c(cc1OC)-c1cc(OC)c(OC)cc1C(CN(C)C)C2` (stereo not drawn), the GI50 in the experiment on OVCAR-8 ovarian, in the experiment with PC-3 prostate, in the experiment on SF-539 CNS, in the experiment on SNB-19 CNS, in the experiment with BT-549 breast and in the experiment with SK-MEL-5 melanoma was above 10 µM throughout. For the same molecule, the GI50 in the experiment on A549 NSCLC and in the experiment with HCT-15 colon was above 10 µM each time. Moreover, the TGI in the experiment on OVCAR-8 ovarian, in the experiment with PC-3 prostate, in the experiment with SF-539 CNS, with SNB-19 CNS, with BT-549 breast and with SK-MEL-5 melanoma was above 10 µM throughout. In addition, the TGI in the experiment on A549 NSCLC and in the experiment on HCT-15 colon was above 10 µM each time.

`COc1ccc2ncnc(Nc3ccc(OCc4ccccc4)cc3)c2c1`: the GI50 was 8.39 µM in the experiment on OVCAR-8 ovarian; 8.54 µM in the experiment with PC-3 prostate; 8.96 µM in the experiment with SF-539 CNS; 9.78 µM in the experiment on SNB-19 CNS; 7.91 µM in the experiment on BT-549 breast; 4.62 µM in the experiment on SK-MEL-5 melanoma. Moreover, the GI50 with A549 NSCLC is 5.98 µM; in the experiment on HCT-15 colon, 5.61 µM. Besides, the TGI was above 25 µM in the experiment with OVCAR-8 ovarian; above 25 µM with PC-3 prostate; above 25 µM in the experiment on SF-539 CNS; above 25 µM with SNB-19 CNS; above 25 µM in the experiment on BT-549 breast; 11.8 µM with SK-MEL-5 melanoma. Moreover, the TGI in the experiment on A549 NSCLC and with HCT-15 colon was above 25 µM throughout.

Consider `COc1ccc(Cn2c(Br)c3c(c2Br)-c2nc(N)sc2CC3)cc1`, for which the GI50 in the experiment on OVCAR-8 ovarian is 3.43 µM; with PC-3 prostate it was 4.76 µM; in the experiment on SF-539 CNS, 3.48 µM; in the experiment on SNB-19 CNS, 8.68 µM; in the experiment on BT-549 breast, 9.16 µM; in the experiment on SK-MEL-5 melanoma, 4.83 µM. Besides, the figures for the GI50 in the experiment with A549 NSCLC and in the experiment with HCT-15 colon were 4.77 µM and 2.67 µM, respectively. The TGI in the experiment on OVCAR-8 ovarian was 18.4 µM; in the experiment on PC-3 prostate, 30.1 µM; in the experiment with SF-539 CNS it was 13.5 µM; with SNB-19 CNS, above 100 µM; with BT-549 breast, 30.4 µM; in the experiment with SK-MEL-5 melanoma it was 18.7 µM. Moreover, the TGI turned out to be 77 µM in the experiment with A549 NSCLC and 20.2 µM in the experiment on HCT-15 colon.

On to `O=C(NC1CCCCC1)NS(=O)(=O)c1ccc(N2N=C3c4ccccc4CC3C2c2ccc(Cl)cc2)cc1` (stereo not drawn), for which the GI50 was 19.6 µM with OVCAR-8 ovarian; 4.05 µM in the experiment on PC-3 prostate; 12.8 µM in the experiment with SF-539 CNS; 21.6 µM in the experiment with SNB-19 CNS; 7.01 µM in the experiment with BT-549 breast; 3.69 µM in the experiment on SK-MEL-5 melanoma. Besides, the GI50 was 17.9 µM in the experiment on A549 NSCLC and 14.5 µM with HCT-15 colon. Further, the TGI was 71.7 µM with OVCAR-8 ovarian; 18.8 µM in the experiment on PC-3 prostate; 31.9 µM with SF-539 CNS; 97.5 µM with SNB-19 CNS; 25.2 µM with BT-549 breast; 18.3 µM with SK-MEL-5 melanoma. Moreover, the TGI came to 47 µM with A549 NSCLC and 43.7 µM in the experiment with HCT-15 colon.
